{"source": "ChEMBL document CHEMBL1806411", "about": "“Opioid δ₁ receptor antagonist 7-benzylidenenaltrexone as an effective resistance reverser for chloroquine-resistant Plasmodium chabaudi” (Bioorg Med Chem Lett, 2011)", "assay_type_in_all_cases": "functional, organism-based", "key": {"Plasmodium chabaudi [1]": {"test_system": "Plasmodium chabaudi", "test": "Antimalarial activity against chloroquine-resistant Plasmodium chabaudi infected in mouse assessed as parasitemia at 10 mg/kg, po administered for 3 consecutive days", "design": "dose 10 mg/kg"}, "Plasmodium chabaudi [2]": {"test_system": "Plasmodium chabaudi", "test": "Reversal of chloroquine-resistance in Plasmodium chabaudi infected in mouse at 10 mg/kg, po coadministered with chloroquine 3 mg/kg, iv administered for 3 consecutive days measured on day 4"}, "Plasmodium chabaudi [3]": {"test_system": "Plasmodium chabaudi", "test": "Reversal of chloroquine-resistance in Plasmodium chabaudi infected in mouse at 20 mg/kg, po coadministered with chloroquine 3 mg/kg, iv administered for 3 consecutive days measured on day 4"}}, "note": "Active and inactive are the calls of the source. No cut-off for these calls is given here."}
{"smiles": "Oc1ccc2c3c1O[C@H]1c4[nH]c5c(c4C[C@@]4(O)[C@@H](C2)N(CC2CC2)CC[C@]314)C[C@@]1(O)[C@H]2Cc3ccc(O)c4c3[C@@]1(CCN2CC1CC1)[C@H]5O4", "values": [{"measurement": "Activity", "setting": "Plasmodium chabaudi [1]", "value": "inactive"}, {"measurement": "Activity", "setting": "Plasmodium chabaudi [2]", "value": "Active"}]}
{"smiles": "COc1ccc(CCN(C)CCCC(C#N)(c2ccc(OC)c(OC)c2)C(C)C)cc1OC", "note": "(stereo not drawn)", "values": [{"measurement": "Activity", "setting": "Plasmodium chabaudi [3]", "value": "Active"}]}
{"smiles": "O=C1/C(=C/c2ccccc2)C[C@@]2(O)[C@H]3Cc4ccc(O)c5c4[C@@]2(CCN3CC2CC2)[C@H]1O5", "values": [{"measurement": "Activity", "setting": "Plasmodium chabaudi [1]", "value": "inactive"}, {"measurement": "Activity", "setting": "Plasmodium chabaudi [2]", "value": "Active"}]}
{"smiles": "Oc1ccc2c3c1O[C@H]1c4[nH]c5ccccc5c4C[C@@]4(O)[C@@H](C2)N(CC2CC2)CC[C@]314", "values": [{"measurement": "Activity", "setting": "Plasmodium chabaudi [1]", "value": "inactive"}, {"measurement": "Activity", "setting": "Plasmodium chabaudi [2]", "value": "Active"}]}
{"smiles": "Oc1ccc2c3c1O[C@H]1c4oc5ccccc5c4C[C@@]4(O)[C@@H](C2)N(CC2CC2)CC[C@]314", "values": [{"measurement": "Activity", "setting": "Plasmodium chabaudi [1]", "value": "Active"}, {"measurement": "Activity", "setting": "Plasmodium chabaudi [2]", "value": "Active"}]}
{"smiles": "O=C1CC[C@@]2(O)[C@H]3Cc4ccc(O)c5c4[C@@]2(CCN3CC2CC2)[C@H]1O5", "values": [{"measurement": "Activity", "setting": "Plasmodium chabaudi [1]", "value": "inactive"}, {"measurement": "Activity", "setting": "Plasmodium chabaudi [2]", "value": "Active"}]}
{"smiles": "CCN(CC)CCCC(C)Nc1ccnc2cc(Cl)ccc12", "note": "(stereo not drawn)", "values": [{"measurement": "Activity", "setting": "Plasmodium chabaudi [1]", "value": "inactive"}, {"measurement": "Activity", "setting": "Plasmodium chabaudi [2]", "value": "inactive"}]}
